Values belong to the compound of their own block, whether it stands above or below them.
Columns and labels:
[1] = biological target: T1, Phosphatidylinositol 4,5-bisphosphate 3-kinase catalytic subunit delta isoform (Homo sapiens, UniProt O00329)
T1 sequence (O00329 whole entry): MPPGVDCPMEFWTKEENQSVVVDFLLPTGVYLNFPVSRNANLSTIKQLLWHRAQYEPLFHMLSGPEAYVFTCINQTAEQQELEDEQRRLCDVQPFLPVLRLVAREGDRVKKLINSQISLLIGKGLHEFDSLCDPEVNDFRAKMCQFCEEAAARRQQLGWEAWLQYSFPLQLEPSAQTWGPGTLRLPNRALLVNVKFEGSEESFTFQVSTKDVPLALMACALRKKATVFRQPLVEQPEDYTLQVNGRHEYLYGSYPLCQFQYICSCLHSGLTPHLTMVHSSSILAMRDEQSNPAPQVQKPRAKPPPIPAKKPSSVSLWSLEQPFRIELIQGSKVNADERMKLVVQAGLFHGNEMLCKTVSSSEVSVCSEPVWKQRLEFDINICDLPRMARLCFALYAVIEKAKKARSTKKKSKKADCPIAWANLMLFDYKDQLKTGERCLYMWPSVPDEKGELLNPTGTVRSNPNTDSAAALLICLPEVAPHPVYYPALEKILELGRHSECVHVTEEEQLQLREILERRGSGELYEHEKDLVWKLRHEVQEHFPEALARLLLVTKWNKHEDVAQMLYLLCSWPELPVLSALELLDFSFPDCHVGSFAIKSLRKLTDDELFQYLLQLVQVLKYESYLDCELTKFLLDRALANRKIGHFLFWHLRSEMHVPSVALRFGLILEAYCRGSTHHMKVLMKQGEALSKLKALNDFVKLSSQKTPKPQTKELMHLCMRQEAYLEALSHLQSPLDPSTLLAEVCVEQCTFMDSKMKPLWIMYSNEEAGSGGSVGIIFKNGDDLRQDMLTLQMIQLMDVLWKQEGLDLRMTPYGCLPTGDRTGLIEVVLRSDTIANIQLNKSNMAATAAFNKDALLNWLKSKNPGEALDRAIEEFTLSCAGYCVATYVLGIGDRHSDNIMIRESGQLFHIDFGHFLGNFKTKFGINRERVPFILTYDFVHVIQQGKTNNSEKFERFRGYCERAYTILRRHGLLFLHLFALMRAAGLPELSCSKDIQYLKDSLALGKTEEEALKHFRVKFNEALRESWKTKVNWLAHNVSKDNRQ

[2] = biological target: T1, Phosphatidylinositol 4,5-bisphosphate 3-kinase catalytic subunit delta isoform; experiment: Inhibition of PI3Kdelta in human whole blood assessed as inhibition of CD69 production in B lymphocyte by immunoassay
[3] = biological target: T1, Phosphatidylinositol 4,5-bisphosphate 3-kinase catalytic subunit delta isoform; experiment: Inhibition of PI3Kdelta by cell-based assay
[4] = system: Rattus norvegicus; experiment: Antiinflammatory activity in rat assessed as inhibition of Streptococcal cell wall-induced rat paw edema; format: functional; conditions: read-out: ID50 (the source's name)
[5] = system: Rattus norvegicus; experiment: Antiinflammatory activity in rat assessed as inhibition of Streptococcal cell wall-induced rat paw edema at 30 mg/kg; format: functional
[6] = system: Homo sapiens; experiment: Toxicity in healthy human administered bid up to 7 days; format: organism-based; conditions: in vivo, 168 h
[7] = species on record: Homo sapiens; experiment: Toxicity in healthy human; format: organism-based; conditions: in vivo
[8] = species on record: Homo sapiens; experiment: Antitumor activity in Non-Hodgkin Lymphoma patient assessed as clinical response rate at 50 to 350 mg, bid; format: functional
[9] = biological target: Serine/threonine-protein kinase mTOR (Homo sapiens) (UniProt P42345); experiment: Inhibition of mTOR
[10] = biological target: T1, Phosphatidylinositol 4,5-bisphosphate 3-kinase catalytic subunit delta isoform; experiment: Inhibition of PI3Kdelta-mediated AKT phosphorylation in human Ramos cells by ELISA; format: cell-based
[11] = system: Mus musculus; experiment: Antiinflammatory activity in LPS-induced COPD BALB/c mouse model assessed as reduction in pulmonary neutrophilia at 0.3 mg/kg, ip qd; format: functional; set-up: scale not given: the % may be the effect or the level left; conditions: route intraperitoneal

SMILES: c1ccc2c(N3CCOCC3)nc(-c3cccc4[nH]ccc34)cc2c1
IC50 ([1]; read-out: IC50): 260 nM

SMILES: COc1ccc(-c2nn(C)c3nc(N)nc(NCc4ccccc4)c23)cc1F
IC50 ([1]; read-out: IC50): < 2000 nM

SMILES: Cc1nc2ccccc2n1-c1nc(N2CCOCC2)c2oc(CN3CCN(C(C)(C)C(N)=O)CC3)cc2n1
IC50 [2]: 17.8 nM

SMILES: CN(C)CCCOc1cccc2c1nc(C(F)F)n2-c1nc(OC2CCN(C(=O)CCl)CC2)nc(N2CCOCC2)n1
IC50 ([1]; read-out: IC50): > 100 nM

SMILES: Cc1oc2ncn(CC(C)C)c(=O)c2c1C(=O)NCc1ccccc1
IC50 ([1]; read-out: IC50): 2100 nM

SMILES: CC(C)N1CCN(Cc2cnc(-c3cc(-c4cccc5[nH]ccc45)cc4[nH]ncc34)o2)CC1 [NEMIRALISIB]
IC50 ([1]; read-out: pIC50 (converted)): < 100 nM

SMILES: O=C(Nc1nn[nH]n1)c1cnc(N2CCOCC2)nc1OC1CCCCCC1
ED50 [4]: 16.3 mg/kg
inhibition in vivo at 30 mg/kg [5]: 52%
IC50 ([1]; read-out: IC50): 197 nM

SMILES: CC[C@H](Nc1ncnc2[nH]cnc12)c1nc2cccc(F)c2c(=O)n1-c1ccccc1 [IDELALISIB]
MTD [6]: 200 mg
MTD [7]: 400 mg
Activity [8]: 56%

SMILES: CC(=O)Nc1nc2c(s1)-c1c(c(C3CC3)nn1C1CCC(C(=O)N[C@H]3CC[C@H](N4CCCC4)CC3)CC1)CC2 (stereo partly specified)
IC50 ([1]; read-out: IC50): < 600 nM

SMILES: C[C@@H]1CN(Cc2nnc(-c3cc(-c4cccc5[nH]ccc45)cc4[nH]ncc34)o2)C[C@H](C)O1
pIC50 [1]: >= 5

SMILES: CN(C)C1CCN(Cc2cc3nc(-c4cccc5[nH]ccc45)nc(N4CCOCC4)c3s2)CC1
IC50 [2]: 17 nM
Ki [1]: 4.9 nM

SMILES: CC(=O)NCCNS(=O)(=O)c1ccc(-c2sc(NC(C)=O)nc2C)o1
Ki [1]: 100 nM

SMILES: C[C@@H]1C[C@H]2[C@@H]3CCC4=CC(=O)C=C[C@]4(C)[C@@]3(F)[C@@H](O)C[C@]2(C)[C@@]1(O)C(=O)CO [DEXAMETHASONE]
Activity [11]: 70%

SMILES: Cc1cccn2c(C(C)Nc3ncnc4[nH]cnc34)c(-c3cc(F)cc(F)c3)nc12 (stereo unspecified)
IC50 [10]: < 500 nM
IC50 ([1]; read-out: IC50): < 200 nM

The next lines start with the values.

IC50 ([1]; read-out: IC50): < 30 nM
SMILES: OCCn1cnc2c(-n3c(C(F)F)nc4ccccc43)nc(N3CCOCC3)nc21

IC50 ([1]; read-out: IC50): < 100 nM
SMILES: CS(=O)(=O)N1CCN(Cc2cc3nc(-c4c(F)ccc5[nH]ccc45)nc(N4CCOCC4)c3s2)CC1

IC50 ([1]; read-out: IC50): < 50 nM
SMILES: Cc1cccc2cc(Cn3cnc4c(N)ncnc43)c(N(C)CC3CCCN3C)nc12 (stereo unspecified)

IC50 ([1]; read-out: IC50): 5.9 nM
SMILES: COc1ccc(NC(=O)c2c(C)oc3ncn(CC(C)C)c(=O)c23)cc1

IC50 ([1]; read-out: IC50): 27 nM
SMILES: COc1ccc(-c2ccc3c(n2)N(C2=NC(=O)C(C)(C)S2)CCO3)cc1OC

IC50 ([1]; read-out: IC50): 16 nM
SMILES: Cc1nc(NC(=O)NCCC(=O)OC(C)(C)C)sc1-c1ccc(S(C)(=O)=O)c(F)c1

IC50 ([1]; read-out: IC50): < 100 nM
SMILES: CC(=O)Nc1ccc(C(=O)NC2=Nc3cc(N4CCOCC4)ccc3C3=NCCN23)cn1

IC50 ([1]; read-out: IC50): < 100 nM
SMILES: O=C(NCC(=O)N1CCCC1)Nc1nc2ccc(-c3cncc(C(F)(F)F)c3)cn2n1

IC50 [3]: < 100 nM
IC50 ([1]; read-out: IC50): < 100 nM
SMILES: Cc1ccccc1-n1c(Cn2nc(-c3cc(O)cc(F)c3)c3c(N)ncnc32)nc2scc(C)c2c1=O

IC50 ([1]; read-out: IC50): < 100 nM
SMILES: CNc1nc(C)c2cc(-c3cc(O)cc(F)c3)ccc2n1

IC50 ([1]; read-out: IC50): < 50 nM
INH [9]: < 0.05 µM
SMILES: CC(=O)Nc1nc2ccc(-c3nn(C4CCCC4)c4ncnc(N)c34)cc2s1

IC50 [10]: < 100 nM
IC50 ([1]; read-out: IC50): < 100 nM
SMILES: CC(Nc1ncnc2[nH]cnc12)c1cc(Cl)c2cncn2c1-c1cccc(F)c1 (stereo unspecified)

IC50 ([1]; read-out: IC50): 40 nM
SMILES: C[C@@H](c1nc2ccsc2c(=O)n1-c1ccccc1)n1cnc2c(N)ncnc21
